Assay results as given in publication PMC10178848, “Modulating fast skeletal muscle contraction protects skeletal muscle in animal models of Duchenne muscular dystrophy” (The Journal of Clinical Investigation, 2023).

Tested on: mdx mouse EDL muscle
Assay: Phosphoprotein array analysis (Cell Signaling Phospho Antibody Array)
Details: T vs C
Method: mdx mouse EDL muscle was prepared for ex vivo analysis as described (n = 5). Muscles were incubated for 1 hour with DMSO or EDG-5506 (5 μM) and then flash frozen in liquid nitrogen. Tissue preparation and analysis were performed as recommended by the manufacturer (Cell Signaling Phospho Antibody Array, Full Moon Biosystems).

Compound: O=c1ccc(-c2cnc(OCC(F)(F)F)nc2)nn1Cc1cncc(F)c1 [EDG-5506]
- Fold Change between Samples T/C: Tau (Phospho-Ser396): 0.90
- Fold Change between Samples T/C: VEGFR2 (Phospho-Tyr1175): 0.84
- Fold Change between Samples T/C: Zap-70 (Phospho-Tyr319): 1.04
- Fold Change between Samples T/C: c-Jun (Phospho-Ser73): 0.91
- Fold Change between Samples T/C: p44/42 MAP Kinase (Phospho-Tyr204): 0.88
- Fold Change between Samples T/C: p53 (Phospho-Ser15): 0.20
- Ratio (T/C): 4E-BP1 (Phospho-Thr45) to total 4E-BP1 (Ab-45) (phospho/total): 0.8337
- Ratio (T/C): 14-3-3 theta/tau (Phospho-Ser232) to total 14-3-3 zeta/delta (Ab-232) (phospho/total): 0.9814
- Ratio (T/C): ACC1 (Phospho-Ser80) to total ACC1 (Ab-80) (phospho/total): 0.9544
- Ratio (T/C): AKT1 (Phospho-Ser473) to total AKT1 (Ab-308) (phospho/total): 0.8575
- Ratio (T/C): AKT1S1 (Phospho-Thr246) to total AKT1S1 (Ab-246) (phospho/total): 1.16
- Ratio (T/C): AMPKbeta1 (Phospho-Ser182) to total AMPKbeta1 (Ab-182) (phospho/total): 0.902
- Ratio (T/C): ASK1 (Phospho-Ser966) to total ASK1 (Ab-966) (phospho/total): 0.799
- Ratio (T/C): ATF2 (Phospho-Ser62/44) to total ATF2 (Ab-62/44) (phospho/total): 0.3856
- Ratio (T/C): Abl1 (Phospho-Thr754/735) to total Abl1 (Ab-754/735) (phospho/total): 1.124
- Ratio (T/C): Actin Pan(a/b/g) (Phospho-Tyr55/53) to total Actin Pan(a/b/g) (Ab-55/53) (phospho/total): 0.9642
- Ratio (T/C): B-RAF (Phospho-Ser446) to total B-RAF (Ab-598) (phospho/total): 0.9669
- Ratio (T/C): BAX (Phospho-Thr167) to total Bax (phospho/total): 0.8854
- Ratio (T/C): BCL-XL (Phospho-Ser62) to total BCL-XL (Ab-47) (phospho/total): 0.5743
- Ratio (T/C): BID (Phospho-Ser78) to total BID (Ab-78) (phospho/total): 0.7661
- Ratio (T/C): BLNK (Phospho-Tyr96) to total BLNK (Ab-96) (phospho/total): 0.53
- Ratio (T/C): BRCA1 (Phospho-Ser1423) to total BRCA1 (Ab-1524) (phospho/total): 0.7749
- Ratio (T/C): CDC25C (Phospho-Ser216) to total CDC25C (Ab-216) (phospho/total): 0.4323
- Ratio (T/C): CDK1/CDC2 (Phospho-Tyr15) to total CDK1/CDC2 (Ab-15) (phospho/total): 0.7557
- Ratio (T/C): CREB (Phospho-Ser133) to total CREB (Ab-133) (phospho/total): 1.041
- Ratio (T/C): CaMK2-beta/gamma/delta (Phospho-Thr287) to total CaMK2-beta/gamma/delta (Ab-287) (phospho/total): 0.6524
- Ratio (T/C): CaMK2A (Phospho-Thr286) to total CaMK2A (Ab-286) (phospho/total): 0.848
- Ratio (T/C): Caspase 1 (Phospho-Ser376) to total Caspase 1 (Ab-376) (phospho/total): 0.6605
- Ratio (T/C): Caspase 8 (Phospho-Ser347) to total Caspase 8 (Ab-347) (phospho/total): 1.051
- Ratio (T/C): Caspase 9 (Phospho-Ser196) to total Caspase 9 (Ab-196) (phospho/total): 0.4054
- Ratio (T/C): Catalase (Phospho-Tyr385) to total Catalase (Ab-385) (phospho/total): 0.7422
- Ratio (T/C): Catenin beta (Phospho-Thr41/Ser45) to total Catenin beta (Ab-37) (phospho/total): 0.6858
- Ratio (T/C): Chk1 (Phospho-Ser286) to total Chk1 (Ab-286) (phospho/total): 0.7615
- Ratio (T/C): Chk2 (Phospho-Thr68) to total Chk2 (Ab-68) (phospho/total): 0.4403
- Ratio (T/C): CrkII (Phospho-Tyr221) to total CrkII (Ab-221) (phospho/total): 0.7162
- Ratio (T/C): Cyclin D1 (Phospho-Thr286) to total Cyclin D1 (Ab-286) (phospho/total): 1.068
- Ratio (T/C): Cyclin E1 (Phospho-Thr77) to total Cyclin E1 (Ab-77) (phospho/total): 0.8189
- Ratio (T/C): DARPP-32 (Phospho-Thr34) to total DARPP-32 (Ab-34) (phospho/total): 0.8988
- Ratio (T/C): EEF2 (Phospho-Thr56) to total EEF2 (Ab-56) (phospho/total): 1.324
- Ratio (T/C): EGFR (Phospho-Tyr869) to total EGFR (Ab-1172) (phospho/total): 1.314
- Ratio (T/C): EGFR (Phospho-Tyr1172) to total EGFR (Ab-1172) (phospho/total): 0.9484
- Ratio (T/C): Elk1 (Phospho-Ser383) to total Elk1 (Ab-389) (phospho/total): 0.8083
- Ratio (T/C): FAK (Phospho-Ser910) to total FAK (Ab-910) (phospho/total): 0.6171
- Ratio (T/C): FGFR1 (Phospho-Tyr654) to total FGFR1 (Ab-766) (phospho/total): 1.2323
- Ratio (T/C): FKHRL1/FOXO3A (Phospho-Ser253) to total FKHRL1/FOXO3A (Ab-253) (phospho/total): 0.5092
- Ratio (T/C): FOXO1/3/4-pan (Phospho-Thr24/32) to total FOXO1/3/4-pan (Ab-24/32) (phospho/total): 0.8412
- Ratio (T/C): GRK2 (Phospho-Ser29) to total GRK2 (Ab-29) (phospho/total): 0.6549
- Ratio (T/C): GSK3 beta (Phospho-Ser9) to total GSK3 beta (phospho/total): 0.6837
- Ratio (T/C): HDAC1 (Phospho-Ser421) to total HDAC1 (Ab-421) (phospho/total): 1.576
- Ratio (T/C): HDAC2 (Phospho-Ser394) to total HDAC2 (Ab-394) (phospho/total): 0.8716
- Ratio (T/C): HER2 (Phospho-Tyr1221/Tyr1222) to total HER2 (Ab-1221/1222) (phospho/total): 0.7289
- Ratio (T/C): HER2 (Phospho-Tyr1248) to total HER2 (Ab-1221/1222) (phospho/total): 0.9858
- Ratio (T/C): HSP27 (Phospho-Ser82) to total HSP27 (Ab-82) (phospho/total): 1.177
- Ratio (T/C): HSP90B (Phospho-Ser226) to total HSP90B (Ab-254) (phospho/total): 0.9521
- Ratio (T/C): IKK alpha/beta (Phospho-Ser180/181) to total IKK alpha/beta (Ab-180/181) (phospho/total): 0.9407
- Ratio (T/C): IKK-beta (Phospho-Tyr188) to total IKK-beta (Ab-199) (phospho/total): 0.6267
- Ratio (T/C): IKK-beta (Phospho-Tyr199) to total IKK-beta (Ab-199) (phospho/total): 0.8262
- Ratio (T/C): IKK-gamma (Phospho-Ser31) to total IKK-gamma (Ab-31) (phospho/total): 1.02
- Ratio (T/C): IL-4R/CD124 (Phospho-Tyr497) to total IL-4R/CD124 (Ab-497) (phospho/total): 0.9976
- Ratio (T/C): IL-10R-alpha (Phospho-Tyr496) to total IL-10R-alpha (Ab-496) (phospho/total): 0.6514
- Ratio (T/C): IRS-1 (Phospho-Ser312) to total IRS-1 (Ab-312) (phospho/total): 0.9305
- Ratio (T/C): IkB-alpha (Phospho-Ser32/36) to total IkB-alpha (Ab-32/36) (phospho/total): 1.258
- Ratio (T/C): IkB-epsilon (Phospho-Ser22) to total IkB-epsilon (Ab-22) (phospho/total): 0.98
